The results in this text go back to ChEMBL document CHEMBL2057173, “Synthesis and SAR studies of bicyclic amine series GPR119 agonists” (Bioorg Med Chem Lett, 2012).

Structures are written as SMILES.

Assay [1] has as its target T1, Glucose-dependent insulinotropic receptor (Homo sapiens) (UniProt Q8TDV5).
T1 sequence (whole entry): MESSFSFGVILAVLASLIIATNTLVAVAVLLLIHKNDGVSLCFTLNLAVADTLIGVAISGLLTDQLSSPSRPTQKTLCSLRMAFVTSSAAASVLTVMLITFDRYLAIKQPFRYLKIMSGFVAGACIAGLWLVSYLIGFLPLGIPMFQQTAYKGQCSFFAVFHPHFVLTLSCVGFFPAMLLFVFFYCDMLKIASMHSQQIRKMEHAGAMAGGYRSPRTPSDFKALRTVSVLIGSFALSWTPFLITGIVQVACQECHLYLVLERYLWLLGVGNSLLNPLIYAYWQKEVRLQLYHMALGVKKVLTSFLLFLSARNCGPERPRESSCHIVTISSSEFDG
Description: Agonist activity at human GPR119 receptor expressed in CHO-K1 cells assessed as cAMP accumulation after 30 mins by HTRF assay relative to AR231453. The format is functional, cell-based. On the technique in general: Changes in cAMP serve as a functional read-out for many G protein-coupled receptors.

Assay [2] concerns the target T2, Glucose-dependent insulinotropic receptor (Homo sapiens, UniProt Q8TDV5).
T2 sequence (Q8TDV5 whole entry): T1 sequence (whole entry)
Description: Agonist activity at human GPR119 receptor expressed in CHO-K1 cells assessed as cAMP accumulation after 30 mins by HTRF assay. The format is functional, cell-based.

Assay [3] has as its target T3, Glucose-dependent insulinotropic receptor (Mus musculus, UniProt Q7TQP3).
T3 sequence (Q7TQP3 whole entry): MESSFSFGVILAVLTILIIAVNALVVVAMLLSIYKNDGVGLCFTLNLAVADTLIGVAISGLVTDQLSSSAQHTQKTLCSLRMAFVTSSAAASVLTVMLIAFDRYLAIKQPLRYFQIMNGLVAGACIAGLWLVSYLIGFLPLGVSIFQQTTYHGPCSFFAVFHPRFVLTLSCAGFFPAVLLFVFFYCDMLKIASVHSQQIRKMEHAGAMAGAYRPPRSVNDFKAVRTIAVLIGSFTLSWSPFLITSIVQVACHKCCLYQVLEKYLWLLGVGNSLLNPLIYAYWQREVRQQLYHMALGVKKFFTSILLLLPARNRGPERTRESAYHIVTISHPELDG
Description: Agonist activity at mouse GPR119 receptor expressed in CHO-K1 cells assessed as cAMP accumulation after 30 mins by HTRF assay. The format is functional, cell-based.

The target of assay [4] is T4, Glucose-dependent insulinotropic receptor (Mus musculus) (UniProt Q7TQP3).
T4 sequence (whole entry): T3 sequence (Q7TQP3 whole entry)
The experiment in a line: Agonist activity at mouse GPR119 receptor expressed in CHO-K1 cells assessed as cAMP accumulation after 30 mins by HTRF assay relative to AR231453. The format is functional, cell-based.

The target in assay [5] is T1, Glucose-dependent insulinotropic receptor (Homo sapiens). The experiment in a line: Agonist activity at human GPR119 receptor expressed in CHO-K1 cells assessed as cAMP accumulation at 1 uM after 30 mins by HTRF assay. The class given is functional, cell-based.
For assay [6] the target is unchanged. The experiment in a line: Agonist activity at human GPR119 receptor expressed in CHO-K1 cells assessed as cAMP accumulation at 10 uM after 30 mins by HTRF assay. The class given is functional, cell-based.
The subject of assay [7] is Mus musculus. The experiment in a line: Antidiabetic activity in po dosed fasted C57BL/6j mouse assessed as decrease in glucose excursion administered 30 mins prior to oral glucose-challenge by oral glucose tolerance test. The class given is functional, organism-based.
Assay [8] deals with Mus musculus. Description: Antidiabetic activity in fasted C57BL/6j mouse assessed as increase in plasma GLP-1 level at 30 mg/kg, po after 30 mins by ELISA relative to control. The class given is functional. Background: ELISA stands for enzyme-linked immunosorbent assay.
The test system of assay [9] is Mus musculus. The experiment in a line: Antidiabetic activity in fasted C57BL/6j mouse assessed as decrease in glucose excursion at 10 mg/kg, po administered 30 mins prior to subcutaneous glucose-challenge after 120 mins by subcutaneous glucose tolerance test. Also noted: scale not given: the % may be the effect or the level left. The format is functional.
Assay [10] relates to Mus musculus. Description: Antidiabetic activity in fasted C57BL/6j mouse assessed as decrease in glucose excursion at 10 mg/kg, po administered 30 mins prior to oral glucose-challenge measured after 120 mins by oral glucose tolerance test. Also noted: scale not given: the % may be the effect or the level left. The format is functional.
The subject of assay [11] is Mus musculus. Description: Antidiabetic activity in fasted C57BL/6j mouse assessed as decrease in glucose excursion at 3 mg/kg, po administered 30 mins prior to oral glucose-challenge measured after 120 mins by oral glucose tolerance test. The class given is functional. Also noted: scale not given: the % may be the effect or the level left.

Take `CC(C)(C)OC(=O)N1CCC(CCCOc2ccc3c(c2)CCS3(=O)=O)CC1`: in assay [1], the Emax (as a rule, the maximal effect, on the per cent scale that the assay sets) was 84%. Besides, in [2], the concentration giving a half-maximal response (EC50) (in general, the concentration at which the effect is half-maximal) is 736 nM.
`CC(C)(C)OC(=O)N1CCC(CCCNc2ccc3c(c2)C(=O)CO3)CC1`: the EC50 in assay [3] worked out at 262 nM; in assay [2], 88 nM. Moreover, the maximal effect (Emax) in assay [1] was found to be 95%; in assay [4] it was 116%.
Consider `COc1cnc(N2CCC(CCCNc3ccc4c(c3)OCC4=O)CC2)nc1`, for which the half-maximal effective concentration (EC50) was 60 nM in assay [3] and 115 nM in assay [2]. Also, the Emax was found to be 101% in assay [1] and 106% in assay [4].
As for `CC(C)(C)OC(=O)N1CCC(CCCNc2ccc3c(c2)C(=O)NC3)CC1`, the EC50 in [3] was 892 nM; in [2], 734 nM. Besides, the Emax in assay [1] came to 89%; in assay [4], 97%.
For `CC(C)(C)OC(=O)N1CCC(CCCNc2ccc3c(c2)CCCCC3=O)CC1`, the Emax in [1] turned out to be 38%. The EC50 in assay [2] is 770 nM.
Regarding `CC(C)c1nsc(N2CCC(CCCNc3ccc4c(c3)OCC4=O)CC2)n1`, the results for the EC50 in [3] and in assay [2] were 812 nM and 121 nM, respectively. Also, the maximal effect (Emax) amounted to 10% in assay [1] and 93% in assay [4].
As for `CC(C)(C)OC(=O)N1CCC(OCCNc2ccc3c(c2)CCS3(=O)=O)CC1`, the Emax in assay [1] was found to be 33%. In addition, the Activity in [5] was 33%.
Consider `CC(C)c1noc(N2CCC(CCCNc3ccc4c(c3)OCC4=O)CC2)n1`, for which the maximal response (Emax) in assay [1] came to 94%. For the same compound, the EC50 in [2] was 73 nM.
With `CC(C)(C)OC(=O)N1CCC(CCCNc2ccc3c(c2)OCS3(=O)=O)CC1`, the EC50 is 266 nM in assay [3] and 254 nM in [2]. Further, the maximal response (Emax) in assay [1] was 93%; in [4], 105%.
Regarding `CC(C)(C)OC(=O)N1CCC(CCCCCNc2ccc3c(c2)CCS3(=O)=O)CC1`, the Emax in assay [1] came out at 65%. Also, the EC50 in assay [2] stood at 145 nM.
On to `CC(C)(C)OC(=O)N1CCC(CCCNc2ccc3c(c2)C(=O)CC3)CC1`, for which the EC50 in assay [3] worked out at 123 nM; in [2], 46 nM. In addition, the maximum response (Emax) in assay [1] is 98%; in assay [4] it was 110%.
Consider `CCc1cnc(N2CCC(CCCNc3ccc4c(c3)OCC4=O)CC2)nc1`, for which the half-maximal effective concentration (EC50) was determined as 159 nM in assay [3] and 117 nM in assay [2]. In addition, the values for the Emax in assay [1] and in assay [4] were 115% and 98%, respectively.
As for `CC(C)(C)OC(=O)N1CCC(CCCNc2ccc3c(c2)S(=O)(=O)CC3)CC1`, in [1], the Emax was determined as 25%. In [2], the EC50 was determined as 1030 nM.
Turning to `CC(C)(C)OC(=O)N1CCC(CCCNc2ccc3c(c2)OCCS3(=O)=O)CC1`, the Emax in [1] is 81%. Further, the 50% effective concentration (EC50) in assay [2] came out at 511 nM.
Turning to `CC(C)(C)OC(=O)N1CCC(CCCNc2ccc3c(c2)CCS3(=O)=O)CC1`, the EC50 was determined as 224 nM in [3] and 270 nM in assay [2]. For the same compound, the Emax in assay [1] turned out to be 80%; in [4], 83%.
As for `CC(C)(C)OC(=O)N1CCC(CCCC(=O)Nc2ccc3c(c2)CCS3(=O)=O)CC1`, the Emax in [1] stood at 56%. Also, the EC50 in [2] came to 2610 nM.
As to `CC(C)(C)OC(=O)N1CCC(CCCNc2ccc3c(c2)NNS3(=O)=O)CC1`, the EC50 worked out at 331 nM in assay [3] and 268 nM in assay [2]. The maximal effect (Emax) in [1] came out at 99%; in [4], 95%.
Consider `CC(C)(C)OC(=O)N1CCC(CCCCNc2ccc3c(c2)CCS3(=O)=O)CC1`, for which the Emax in [1] was determined as 62%. Besides, in [2], the EC50 came out at 210 nM.
For `CC(C)(C)OC(=O)N1CCC(CCCNc2ccc3c(c2)CCC3=O)CC1`, the EC50 in assay [3] turned out to be 87 nM; in [2], 86 nM. For the same compound, the Emax is 85% in assay [1] and 105% in [4].
With `CC(C)(C)OC(=O)N1CCC(CCCNc2ccc3c(c2)CNC3=O)CC1`, the EC50 in assay [3] is 515 nM; in [2], 550 nM. The figures for the Emax in assay [1] and in assay [4] were 91% and 102%, respectively.
For `CC(C)c1nnc(N2CCC(CCCNc3ccc4c(c3)OCC4=O)CC2)o1`, the figures for the EC50 in assay [3] and in assay [2] were 1020 nM and 704 nM, respectively. The Emax in assay [1] came out at 85%; in assay [4], 88%.
For `CC(C)(C)OC(=O)N1CCC(CCCNc2ccc3c(c2)C(=O)CCO3)CC1`, the values for the EC50 in assay [3] and in [2] were 351 nM and 272 nM, respectively. Further, the maximal response (Emax) in assay [1] is 100%; in assay [4] it was 108%.
As for `CC(C)(C)OC(=O)N1CCC(CCCNc2ccc3c(c2)OCC3=O)CC1`, the EC50 in assay [3] is 66 nM; in assay [2], 52 nM. Moreover, the Emax was 94% in assay [1] and 108% in [4].
Take `COC(=O)c1cnc(N2CCC(CCCNc3ccc4c(c3)OCC4=O)CC2)nc1`: the EC50 in assay [3] is 139 nM; in assay [2] it was 149 nM. The Emax in assay [1] amounted to 85%; in assay [4] it was 67%.
In the case of `CN(CCNc1ccc2c(c1)CCS2(=O)=O)C1CCN(C(=O)OC(C)(C)C)CC1`, the Activity in [6] is 10%. Besides, the Emax in [1] worked out at 10%.
As for `CC(C)c1noc(N2CCC(CCCNc3ccc4c(c3)C(=O)CC4)CC2)n1`, the EC50 came out at 158 nM in [3] and 58 nM in assay [2]. The Emax in assay [1] turned out to be 110%; in assay [4], 113%.
For `CC(C)c1nc(N2CCC(CCCNc3ccc4c(c3)OCC4=O)CC2)no1`, the Emax in assay [1] was found to be 91%. The EC50 in assay [2] was determined as 161 nM.
Regarding `CCc1cnc(N2CCC(CCCNc3ccc4c(c3)C(=O)CC4)CC2)nc1`, the results for the EC50 in [3] and in assay [2] were 167 nM and 51 nM, respectively. Further, the Activity result in assay [7] was “Dose-dependent effect”; in assay [9] it was 32%; in assay [10] it was 38%; in assay [11] it was 29%. Further, the figures for the maximal response (Emax) in assay [1] and in [4] were 113% and 110%, respectively. Further, the “fold change (FC)” value in assay [8] is given as above 2.
